Measured values published in patent US9133197B2, “Oxidated derivatives of triazolylpurines useful as ligands of the adenosine A2A receptor and their use as medicaments” (SIGMA-TAU INDUSTRIE FARMACEUTICHE RIUNITE S.P.A., priority 2009, dated 2015).
pIC50, pKi: −log10 of the molar value.

Assays:
[1] = tested on: battery of 51 different receptors; experiment: Selectivity profile: affinity toward a battery of 51 different receptors; assay type: binding, human; details: tested at 10 μM
Excerpt: The majority of the 51 assays were human recombinant receptors of the following types: adenosine, adrenergic, cannabinoid, dopamine, GABA, histamine, melatonin, muscarinic, prostanoid and serotonin receptors belonging to non peptide receptors family; angiotensin-II, bradychinin, chemokines, cholecistokinin, endothelin, galanin, melacortin, neurokinin, neuropeptide Y, neurotensin, opioid and opioid like, somatostatin, vasoactive intestinal peptide and vasopressin receptors belonging to peptide receptors family; Ca^2+ channel, K^+ channel and Na^+ channel belonging to the ion channel family and dopamine, norepinephrine and serotonin belonging to the amine transporters receptors family.” These three compounds were tested at a concentration of 10 μM.

[2] = biological target: T1, human adenosine A2a receptor (Homo sapiens (Human), UniProt P29274); experiment: Inhibition of NECA-induced cAMP accumulation in HEK 293 cells; assay type: cell-based; details: HEK 293 cells expressing human A2a; 100 nmol/l NECA; mean of four experiments
T1 sequence (P29274 whole entry): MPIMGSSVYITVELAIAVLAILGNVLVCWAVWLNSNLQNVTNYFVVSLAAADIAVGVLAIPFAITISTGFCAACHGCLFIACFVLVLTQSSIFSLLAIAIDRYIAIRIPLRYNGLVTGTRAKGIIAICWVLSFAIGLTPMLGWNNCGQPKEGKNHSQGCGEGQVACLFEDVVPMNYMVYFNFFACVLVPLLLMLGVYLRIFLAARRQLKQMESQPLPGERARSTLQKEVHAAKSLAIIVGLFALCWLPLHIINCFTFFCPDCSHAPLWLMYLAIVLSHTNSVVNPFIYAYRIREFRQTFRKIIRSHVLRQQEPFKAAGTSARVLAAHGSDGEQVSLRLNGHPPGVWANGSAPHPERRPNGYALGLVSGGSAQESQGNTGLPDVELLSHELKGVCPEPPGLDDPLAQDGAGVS
Method: The compounds of the present invention were tested to assess their capacity to inhibit cAMP accumulation induced by the A2A agonist 5′-N-ethylcarboxamidoadenosine (NECA).
cAMP quantitative determination was performed with an enzyme immunoassay system (cat. RPN2255, Amersham Biosciences) according to manufacturer's instructions. HEK 293 cells, stably expressing the human adenosine A2a receptor gene (PerkinElmer, Boston, Mass., USA, cat. RBHA2AC), were grown in Falcon flasks in DMEM (Cambrex, Verviers, Belgium) supplemented with 10% FBS (Cambrex), 1 mmol/l sodium pyruvate (Sigma-Aldrich, St. Louis, Mo., USA), and 0.4 mg/ml G418 (Sigma-Aldrich) at 37° C. in a 5% CO2 atmosphere. Cells were plated on 96-well dishes at a concentration of 10^3 cells/well 48 hours before test compound exposure. Before cell stimulation with the compounds, cells were treated for 10 min at 37° C. with 0.5 mmol/l of the phosphodiesterase inhibitor Ro 20-1724 (Sigma-Aldrich) and with 2 U/ml of adenosine deaminase (ADA, Sigma-Aldrich). Medium was then changed with fresh medium containing scalar concentrations of test compounds (10^−10-10^−4 mol/l) at 37° C. and, after 10 min, 100 nmol/l NECA was added. cAMP was extracted 20 min after and quantified.
Data were analyzed by nonlinear regression analysis with GraphPad PRISM commercial software. Test compound concentrations causing a half maximal inhibition of control values (IC50 calculated by GraphPad Prism software) was reported (mean±SEM of four independent experiments).

[3] = biological target: T1, human adenosine A2a receptor; experiment: A2a receptor competition binding assay ([3H]ZM241385); details: membranes of HEK293 cells expressing human A2a; [3H]ZM241385 2 nmol/l; Ki from IC50 by Cheng and Prusoff
Method: HEK293 cells, stably expressing the human adenosine A2a receptor gene (PerkinElmer, Boston, Mass., USA, cat. RBHA2AC), were grown in Falcon flasks in DMEM (Cambrex, Verviers, Belgium) supplemented with 10% FBS (Cambrex), 1 mmol/l sodium pyruvate (Sigma-Aldrich, Saint Louis, Mo., USA), 0.4 mg/ml G418 (Sigma-Aldrich) at 37° C. in a 5% CO2 atmosphere. For radioligand binding experiments, the cells were collected at 80% of confluence, in 5 mmol/l Tris-HCl (Sigma-Aldrich), pH 7.4, containing 2 mmol/l EDTA, counted, washed in PBS (Cambrex), resuspended in incubation buffer A containing 50 mmol/l Tris-HCl, pH 7.4, 10 mmol/l MgCl2 (Sigma-Aldrich) and homogenized using an Ultra Turrax T25. The membranes were centrifuged and homogenized once again and the final pellet was stored at −80° C. until use. Prior to the competition binding assay, the pellet was resuspended in buffer A at the desired protein concentration and membrane suspension was incubated with 2 U/ml adenosine deaminase (ADA, Sigma-Aldrich) for 30 min at 37° C. to remove endogenous adenosine.
The protein concentration of membrane suspension was determined using the Bradford method (Pierce, Rockford, Ill., USA) with bovine albumin as standard. Competition binding experiments were performed by incubating membranes (5-10 μg of protein/sample) with a single concentration of the A2a antagonist [^3H]ZM241385 (Biotrend, Cologne, Germany) (2 nmol/l), in the presence of various concentrations (ranging from 10^−5 to 10^−11 mol/l) of test and reference compounds in 96-well filter plates (MultiScreen system, cat. MAFBN0B10, Millipore, Billerica, Mass., USA) for one h at 4° C. in a total volume of 200 μl/well of appropriate buffer (50 mmol/l Tris-HCl, pH 7.4, 10 mmol/l MgCl2). Nonspecific binding was determined in the presence of 10 μmol/l cold ZM241385 (Tocris, Ellisville, Mo., USA). At the end of incubation, bound and free radioligands were separated by filtering the 96-well filter plates using a Millipore filtration apparatus (MultiScreenHTS vacuum manifold). Filter plates were then washed several times with ice-cold buffer (50 mmol/l Tris-HCl, pH 7.4) and filter-bound radioactivity measured using a MicroBeta counter (PerkinElmer) after addition of 30 μl/well of OptiPhase SuperMix scintillation cocktail (PerkinElmer). Four experiments were performed in triplicate by JANUS® automated workstation (Perkin Elmer).
Data were analyzed by nonlinear regression analysis with GraphPad PRISM commercial software and expressed as IC50, defined as the concentration of compounds that inhibits 50% of [^3H]ZM241385 binding. Inhibitory binding constant (Ki) values were calculated from IC50 values according to the Cheng and Prusoff equation Ki=IC50/(1+[C]/Kd), where [C] is the concentration of the radioligand and Kd its dissociation constant.

[4] = biological target: human adenosine A1 receptor (Homo sapiens (Human), UniProt P30542); experiment: A1 receptor competition binding assay ([3H]DPCPX); details: membranes of CHO-K1 cells expressing human A1; [3H]DPCPX 1.7 nmol/l; Ki from IC50 by Cheng and Prusoff
Sequence of human adenosine A1 receptor (P30542 whole entry): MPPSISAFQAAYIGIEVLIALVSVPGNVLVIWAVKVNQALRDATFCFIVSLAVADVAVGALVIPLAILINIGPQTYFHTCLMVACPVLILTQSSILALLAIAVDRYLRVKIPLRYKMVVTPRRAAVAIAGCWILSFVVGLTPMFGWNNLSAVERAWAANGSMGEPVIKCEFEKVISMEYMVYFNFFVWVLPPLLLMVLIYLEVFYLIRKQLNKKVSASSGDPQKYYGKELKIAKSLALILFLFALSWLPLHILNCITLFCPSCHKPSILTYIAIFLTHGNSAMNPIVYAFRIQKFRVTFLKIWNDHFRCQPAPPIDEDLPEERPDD
Method: Competition binding experiments have been performed incubating membranes from CHO-K1 cells stably transfected with the human adenosine A1 receptor (cat. ES-010-M400UA, Perkin Elmer, Boston, Mass., USA) (5-10 μg of protein/sample) with a single concentration of [3H]DPCPX (1.7 nmol/l) (Perkin Elmer), in the presence of various concentrations (ranging from 10^−5 to 10^−10 M) of cold DPCPX, ST4206 and ST4208 in 96-well filter plates (MultiScreen system, cat #MAFBN0B10, Millipore, Billerica, Mass., USA) for 60 min at 25° C. in a total volume of 200 μL/well of 25 mmol/l Hepes, 5 mmol/L MgCl2, 1 mmol/l CaCl2, 100 mmol/L NaCl, pH 7.4 (all from Sigma-Aldrich). Non-specific binding has been determined in the presence of 250 μmol/l of cold DPCPX (8-cyclopentyl-1,3-dipropylxanthine, Sigma-Aldrich). At the end of incubation, bound and free radioligands have been separated by filtering the 96-well filter plates using a Millipore filtration apparatus (MultiscreenHTS vacuum manifold). Filter plates have been washed several times with ice-cold buffer (50 mmol/l Tris-HCl, pH 7.4) and filter-bound radioactivity measured using a MicroBeta counter (PerkinElmer) after addition of 30 μL/well of OptiPhase SuperMix scintillation cocktail (PerkinElmer).
Data have been analyzed using nonlinear regression with GraphPad PRISM commercial software. Data will be expressed as test compound concentration causing a half maximal inhibition of control values (IC50). Inhibitory binding constant (Ki) values will be calculated from IC50 values, according to the Cheng and Prusoff equation K1=IC50/(1+[C]/Kd), where [C] is the concentration of the radioligand and Kd its dissociation constant.

[5] = tested on: haloperidol-induced catalepsy in CD1 mice; experiment: Haloperidol-induced catalepsy mice model; assay type: in vivo; details: oral 10, 20 or 40 mg/kg, haloperidol 2 mg/kg i.p., AUC of catalepsy time over 7 h
Method: Haloperidol (2 mg/kg) was injected i.p. to CD1 mice 2.5 h before oral administration of ST3932 or ST4206. The latter were administered at doses of 10, 20 or 40 mg/kg.
Then, each CD1 mouse was gently placed by its forepaws on a wire at a height of 4.5 cm. Catalepsy was measured as the time (expressed in seconds) necessary for the animal to step down with at least one forepaw, with an end point of 60 seconds, time after which the mouse was gently removed from the wire. Then, catalepsy was scored every 60 min for seven h.
All data were expressed both as individual and mean values, plus or minus standard error (Mean±SEM) of catalepsy time in seconds. Statistical analysis was performed using sigma stat program. After calculation of AUC throughout 7 hours, the one-way ANOVA followed by Dunnett's test were used.

6-OHDA lesioned rats = experiment: Enhancement of L-DOPA antiparkinsonian activity, 6-OHDA lesioned rats; assay type: in vivo, Rats (Sprague Dawley); details: 10, 20, 40 mg/kg with threshold dose of L-Dopa (6 mg benserazide + 3 mg L-DOPA); 6-OHDA rats
Method: Rats (Sprague Dawley) under chloral hydrate (400 mg/kg) anaesthesia were placed in a Kopf stereotaxic apparatus. Through a stainless steel cannula, 6-OHDA was injected at a rate of 1 μl/min into the left medial forebrain bundle at coordinates A=−2.2, L=+1.5 and V=−7.8, according to the Pellegrino atlas. All rats, including shams, were treated with desipramine (10 mg/kg) 10 min before anaesthesia to prevent damage to noradrenergic neurons.
Two weeks after the 6-OHDA injection, all animals were tested for their contra lateral rotation capacity in response to 30 mg/kg i.p. benserazide followed by 50 mg/kg i.p. of L-Dopa 30 min later. Rats not showing at least 200 contra lateral rotations within the 3 h testing period were eliminated from the study. One week after this test, selected animals were randomized to be enrolled in three studies. Each study involved seven groups of eight animals.
Tested compounds (ST3829, ST3932 and ST4206) were dissolved in a solution containing 10% sucrose and 0.3% Tween 80 in sterile water in order to obtain three different dosage forms (i.e., 10, 20 and 40 mg/kg).
In groups 5, 6 and 7 benserazide was administered first, followed by the tested compound 25 min after and finally by L-DOPA 5 min later.

Q: `Cn1c(-n2nccn2)nc2c(N)nc(CCCCO)nc21` [Example 1, 4-(6-Amino-9-methyl-8[1,2,3]triazol-2-yl-9H-purin-2-yl)butan-1-ol] was tested. Which “affinity toward 51 receptors” value [1] did it give?
A: none of them demonstrated any substantial affinity

Q: What about the pIC50 [2] of the same compound?
A: 5.67

Q: What about the pKi [3] of the same compound?
A: 7.28

Q: And the pKi [4]?
A: 7.29

Q: Which results are given for `CC(O)CCc1nc(N)c2nc(-n3nccn3)n(C)c2n1` (stereo not drawn) [Example 2, 4-(6-Amino-9-methyl-8[1,2,3]triazol-2-yl-9H-purin-2-yl)butan-2-ol]?
A: affinity toward 51 receptors [1]: none of them demonstrated any substantial affinity; antagonism of haloperidol-induced catalepsy [5]: significantly antagonized haloperidol-induced catalepsy in a dose-dependent manner; contralateral turning behaviour induced by L-Dopa (6-OHDA lesioned rats): increased the contralateral turning behaviour induced by L-Dopa; pIC50 [2]: 6.35; pKi [3]: 8.10; pKi [4]: 7.57

Q: With `C[C@H](O)CCc1nc(N)c2nc(-n3nccn3)n(C)c2n1` [Example 3, (S)-4-(6-Amino-9-methyl-8-[1,2,3]triazol-2-yl-9H-purin-2-yl)butan-2-ol] as the compound, how does the pIC50 [2] read?
A: 6.59

Q: What about the pKi [3] of the same compound?
A: 7.72

Q: With `C[C@@H](O)CCc1nc(N)c2nc(-n3nccn3)n(C)c2n1` [Example 4, (R)-4-(6-Amino-9-methyl-8-[1,2,3]triazol-2-yl-9H-purin-2-yl)butan-2-ol] as the compound, how does the pIC50 [2] read?
A: 6.38

Q: And the pKi [3]?
A: 8.10

Q: How did the “affinity toward 51 receptors” value [1] turn out when `CCCC(O)c1nc(N)c2nc(-n3nccn3)n(C)c2n1` (stereo not drawn) [Example 5, 1-(6-Amino-9-methyl-8-[1,2,3]triazol-2-yl-9H-purin-2-yl)butan-1-ol] was run?
A: none of them demonstrated any substantial affinity

Q: And the “contralateral turning behaviour induced by L-Dopa” value (6-OHDA lesioned rats)?
A: efficacy of ST3829 at increasing the number of contralateral rotation

Q: What about the pIC50 [2] of the same compound?
A: 5.63

Q: And the pKi [3]?
A: 7.66

Q: And the pKi [4]?
A: 6.92

Q: How did the pIC50 [2] turn out when `CCCC(=O)c1nc(N)c2nc(-n3nccn3)n(C)c2n1` [Example 6, 1-(6-Amino-9-methyl-8-[1,2,3]triazol-2-yl-9H-purin-2-yl)-butan-1-one] was run?
A: 5.53

Q: What about the pKi [3] of the same compound?
A: 7.72

Q: What about the pKi [4] of the same compound?
A: 6.67

Q: With `CC(=O)CCc1nc(N)c2nc(-n3nccn3)n(C)c2n1` [Example 7, 4-(6-Amino-9-methyl-8[1,2,3]triazol-2-yl-9H-purin-2-yl)-butan-2-one] as the compound, how does the “antagonism of haloperidol-induced catalepsy” value [5] read?
A: significantly antagonized haloperidol-induced catalepsy in a dose-dependent manner

Q: What about the “contralateral turning behaviour induced by L-Dopa” value (6-OHDA lesioned rats) of the same compound?
A: increased the contralateral turning behaviour induced by L-Dopa

Q: And the pIC50 [2]?
A: 6.00

Q: And the pKi [3]?
A: 7.92

Q: What about the pKi [4] of the same compound?
A: 6.71
